The results in this text go back to patent publication US20250034116A1, “1,4-DIHETEROCYCLIC SUBSTITUTED AROMATIC RING OR AROMATIC HETEROCYCLIC COMPOUND AND USE THEREOF” (BeBetter Med Inc., priority 2022, published 2025).

The IC50 is the concentration at which inhibition is half-maximal. High values mean weaker potency, low ones greater potency. As a reminder, the AUC(0-inf) is total exposure, with the tail of the curve extrapolated. Read a low AUC(0-inf) as less exposure. The Cmax is the peak of the concentration-time curve. By Tmax is commonly meant the time from dosing to the highest level. A word on the half-life: it is the time needed for the level to fall by half in the phase considered. A low value points to fast loss.

Data set [1] relates to CYP enzymes in human liver microsomes (HLM). Description: Inhibition of 20-HETE production in human liver microsomes (HLM). The class given is biochemical. The method in brief: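 LC-MS/MS read-out of 20-HETE formation, expressed as activity relative to no-inhibitor control and fitted to a Hill equation for IC50; percent inhibition also given at 1000, 500 or 100 nM. Enzyme sources: recombinant CYP4F2, recombinant CYP4A11, or human or mouse liver microsomes. Each is combined with compound and substrate (400 μM solution) and warmed 10 min at 37 °C, then incubated 25 min at 37 °C after adding NADPH (6 mM solution).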

For data set [2], the system named is CYP enzymes in mouse liver microsomes (MLM). Description: Inhibition of 20-HETE production in mouse liver microsomes (MLM). It counts as biochemical. The method, then: Experimental principle: The inhibitory activity of 20-HETE production is evaluated by testing the inhibitory effects of the compound on human liver microsomes (HLM), rat liver microsomes (RLM), mouse liver microsomes (MLM), or […] CYP4 subtype enzymes (CYP4F2). This assay employs HLM, RLM, or MLM along with recombinant CYP4F2 (rCYP4F2) and recombinant CYP4A11 (rCYP4A11), which are […] CYP4 subtype enzymes, to detect the effects of the test compound at different concentrations on the metabolic rate of enzyme-specific substrates, to determine the inhibitory effects of the test compound on CYP enzymes in HLM, RLM, or MLM.
Experimental methods: Dissolve the test compound in DMSO, and subsequently dilute it with an acetonitrile and DMSO mixture (3:1). Add 2 μl of varying concentrations of the test compound and 100 μl of potassium phosphate buffer containing either liver microsomes or recombinant enzymes to a 96-well plate. After mixing well, transfer 30 μl to another well (in duplicate), add 15 μl of 400 μM substrate solution, and mix well again. Preheat at 37° C. for 10 minutes, and then add 15 μl of 6 mM NADPH and incubate at 37° C. for 25 minutes. After 25 minutes, add 160 μl of acetonitrile solution (containing 0.1 μg/ml internal standard) to stop the reaction. Mix well, centrifuge at 3500 g for 15 minutes, and then analyze the supernatant using LC-MS/MS.
Plot the compound concentration on the x-axis and the inhibition rate on the y-axis to draw the curve. Use GraphPad Prism 5 software to fit the curve and calculate the IC50. The formula is Y=Bottom+(Top−Bottom)/(1+10^((Log IC50−X)×HillSlope)). X represents the logarithmic concentration of the inhibitor, and Y represents the relative enzyme activity at a given inhibitor concentration (relative to the condition without the inhibitor).
Calculate the inhibition percentages at concentrations of 1000 nM, 500 nM, or 100 nM as well as the half-maximal inhibitory concentration (IC50) of the test compound from the above experiment.
(Liver microsomes are vesicles of endoplasmic reticulum, rich in cytochrome P450 enzymes.)

The subject of data set [3] is CYP enzymes in rat liver microsomes (RLM). The data set is described as follows: Inhibition of 20-HETE production in rat liver microsomes (RLM). It counts as biochemical. The gist of the method: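 Test compounds were dissolved in DMSO, diluted in acetonitrile/DMSO (3:1), and 2 μl was mixed with 100 μl potassium phosphate buffer containing rat liver microsomes in a 96-well plate. Duplicate 30 μl aliquots received 15 μl of 400 μM substrate, were preheated at 37° C. for 10 minutes, then started with 15 μl of 6 mM NADPH for 25 minutes. LC-MS/MS measured 20-HETE formation.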

Data set [4] is described as follows: Pharmacokinetic (PK) experiment, oral administration in rats. The class given is in vivo, Male SD rats. The settings on record: 20 mg/kg; for AUC(0-inf) / Cmax / Tmax / half-life / AUC(0-t): male, SD, rat, plasma; for AUC(0-t): read-out: AUC0-24. The method, then: Male SD rats, weighing 180-250 grams, were fasted overnight before testing. The test compound was dissolved in 30% sulfobutylether-β-cyclodextrin and administered orally at a dose of 20 mg/kg. Blood was collected from the tail vein at 15 minutes, 30 minutes, and 1, 2, 4, 6, 8, and 24 hours after administration. Approximately 0.3 ml of blood was collected at each time point, placed in a centrifuge tube containing K2-EDTA, and centrifuged (2000 g for 10 minutes at 4° C.) to take the plasma, which was then stored in an ultra-low temperature freezer at −70° C. or below. A 50 μL plasma sample was mixed with 135 μL of acetonitrile (containing 0.5 μg/mL internal standard) and vortexed for protein precipitation. After centrifugation, the supernatant was taken for LC-MS/MS analysis.

For `O=C(C1CCC(O)C1)N1CCC(c2ccc(-c3cn[nH]c3)cc2F)CC1` (single isomer, unassigned) [Compound 145a, (4-(2-fluoro-4-(1H-pyrazol-4-yl)phenyl)piperidin-1-yl)(3-hydroxycyclopentyl) methanone], the “HLM (% inh @ 100 nM)” value in data set [1] is listed as 86.67%. Also, the “MLM (% inh @ 1000 nM)” value in data set [2] is 60.45%.

Regarding `O=C(C1CCC(O)C1)N1CCC(c2ccc(-c3cn[nH]c3)cc2F)CC1` (single isomer, unassigned) [Compound 145b, (4-(2-fluoro-4-(1H-pyrazol-4-yl)phenyl)piperidin-1-yl)(3-hydroxycyclopentyl) methanone], the “HLM (% inh @ 100 nM)” value in data set [1] is listed as 88.49%. Moreover, the “MLM (% inh @ 1000 nM)” value in data set [2] is on record as 48.10%.

Consider `O=C(C1CCCCC1O)N1CCC(c2ccc(-c3cn[nH]c3)cc2F)CC1` (single isomer, unassigned) [Compound 149b, (4-(2-fluoro-4-(1H-pyrazol-4-yl)phenyl)piperidin-1-yl)(2-hydroxycyclohexyl) methanone], for which, in data set [1], the “HLM (% inh @ 100 nM)” value amounted to 83.42%. In addition, the “MLM (% inh @ 1000 nM)” value in data set [2] is given as 47.54%.

Take `O=C(Nc1ccccc1)C1CCN(c2ccc(-c3cn[nH]c3)cc2)CC1` [Compound 58, 1-(4-(1H-pyrazol-4-yl)phenyl)-N-phenylpiperidine-4-carboxamide]: the values for the concentration for half-maximal inhibition (IC50) in data set [1] and in data set [2] were 16.6 nM and 1570 nM, respectively. Moreover, the “RLM (% inh @ 500 nM)” value in data set [3] was 44.45%.

As for `O=C(N1CCCC1)N1CCC(c2ccc(-c3cn[nH]c3)c(F)c2F)CC1` [Compound 71, (4-(2,3-difluoro-4-(1H-pyrazol-4-yl)phenyl)piperidin-1-yl)(pyrrolidin-1-yl) methanone], in data set [1], the IC50 amounted to 19.7 nM and the “HLM (% inh @ 500 nM)” value amounted to 95.89%. Besides, in data set [4], the “absorption and blood exposure after oral administration (in words)” value (from here on “absorption and blood exposure”) is “well absorbed and exhibit high blood exposure”; the total exposure AUC(0-inf) was 58000 ng·h/mL; the Cmax amounted to 8730 ng/mL; the Tmax was found to be 2 h. Also, in data set [4], the half-life is 2.41 h and the AUC(0-t) was found to be 57900 ng·h/mL. In addition, the “RLM (% inh @ 500 nM)” value in data set [3] was found to be 75.13%.

Consider `O=C(CC1CCCC1)N1CCC(c2ccc(-c3cn[nH]c3)c(F)c2F)CC1` [Compound 93, 2-cyclopentyl-1-(4-(2,3-difluoro-4-(1H-pyrazol-4-yl)phenyl)piperidin-1-yl)ethan-1-one], for which the “HLM (% inh @ 500 nM)” value in data set [1] was found to be 91.77%. In addition, the “RLM (% inh @ 500 nM)” value in data set [3] was found to be 80.86%. The compound also came in with a concentration for half-maximal inhibition (IC50) in data set [2] of 296 nM.

Turning to `O=C(C1CCCC1)N1CCC(c2ccc(-c3cn[nH]c3)c(F)c2F)CC1` [Compound 98, cyclopentyl(4-(2,3-difluoro-4-(1H-pyrazol-4-yl)phenyl)piperidin-1-yl) methanone], in data set [1], the IC50 is 22 nM and the “HLM (% inh @ 500 nM)” value is 96.23%. Besides, in data set [4], the “absorption and blood exposure” value was “well absorbed and exhibit high blood exposure”; the AUC(0-inf) was 98600 ng·h/mL; the concentration peaked (Cmax) at 8700 ng/mL; the Tmax was found to be 3 h. Moreover, in data set [4], the half-life is 2.38 h and the AUC(0-t) turned out to be 98400 ng·h/mL. The same compound gave an IC50 in data set [3] of 9.68 nM.

With `C[C@@H]1CN(c2ccc(-c3cn[nH]c3)c(F)c2F)CCN1C(=O)N1CCCC1` [Compound 103, (R)-(4-(2,3-difluoro-4-(1H-pyrazol-4-yl)phenyl)-2-methylpiperazin-1-yl)(pyrrolidin-1-yl) methanone], the figures for the 50% inhibitory concentration (IC50) in data set [1] and in data set [2] were 12 nM and 743 nM, respectively. Moreover, the “HLM (% inh @ 500 nM)” value in data set [1] came out at 80.55%. Besides, in data set [3], the “RLM (% inh @ 500 nM)” value came to 74.73%.

As for `O=C(CCCCCc1ccccc1)NCC1CCN(c2ccc(-c3cn[nH]c3)cc2)CC1` [Compound 113, N-((1-(4-(1H-pyrazol-4-yl)phenyl)piperidin-4-yl)methyl)-6-phenylhexanamide], in data set [1], the 50% inhibitory concentration (IC50) was 20.6 nM and the “HLM (% inh @ 500 nM)” value was found to be 87.72%. In addition, in data set [4], the “absorption and blood exposure” value is “well absorbed and exhibit high blood exposure”; the total exposure AUC(0-inf) amounted to 10100 ng·h/mL; the Cmax is 2420 ng/mL; the Tmax turned out to be 1.33 h. Moreover, in data set [4], the half-life was 2.93 h and the AUC(0-t) was 10100 ng·h/mL. In data set [3], the IC50 stood at 15.5 nM and the “RLM (% inh @ 500 nM)” value is 57.83%.

For `O=C(N1CCN(c2ccc(-c3cn[nH]c3)cc2F)CC1)C1(O)CCCCC1` [Compound 132, (4-(2-fluoro-4-(1H-pyrazol-4-yl)phenyl)piperazin-1-yl)(1-hydroxycyclohexyl) methanone], the IC50 is 25.6 nM in data set [1] and 2420 nM in data set [2].

Consider `O=C(N1CCC(c2ccc(-c3cn[nH]c3)cc2F)CC1)N1Cc2ccccc2C1` [Compound 136, (4-(2-fluoro-4-(1H-pyrazol-4-yl)phenyl)piperidin-1-yl)(isoindolin-2-yl) methanone], for which the concentration for half-maximal inhibition (IC50) in data set [1] is 19.4 nM; in data set [2], 664 nM. The “HLM (% inh @ 100 nM)” value in data set [1] was found to be 87.34%.

For `O=C(N1CCC(c2ccc(-c3cn[nH]c3)cc2F)CC1)C1(O)CCCCC1` [Compound 140, (4-(2-fluoro-4-(1H-pyrazol-4-yl)phenyl)piperidin-1-yl)(1-hydroxycyclohexyl) methanone], the half-maximal inhibitory concentration (IC50) in data set [1] was determined as 17.6 nM; in data set [2] it was 1520 nM.

As for `O=C(N1CCC(c2ccc(-c3cn[nH]c3)cc2F)CC1)C1(F)CCCCC1` [Compound 141, (4-(2-fluoro-4-(1H-pyrazol-4-yl)phenyl)piperidin-1-yl)(1-fluorocyclohexyl) methanone], the “HLM (% inh @ 100 nM)” value in data set [1] came to 88.15%. In addition, the “MLM (% inh @ 1000 nM)” value in data set [2] is recorded as 59.36%.

Take `O=C(C1CCOC1)N1CCC(c2ccc(-c3cn[nH]c3)cc2F)CC1` (stereo not shown) [Compound 144, (4-(2-fluoro-4-(1H-pyrazol-4-yl)phenyl)piperidin-1-yl)(tetrahydrofuran-3-yl) methanone]: in data set [1], the “HLM (% inh @ 100 nM)” value came out at 87.74%. Further, in data set [2], the “MLM (% inh @ 1000 nM)” value is recorded as 60.66%.

Turning to `COC1(C(=O)N2CCC(c3ccc(-c4cn[nH]c4)cc3)CC2)CCCCC1` [Compound 150, (4-(4-(1H-pyrazol-4-yl)phenyl)piperidin-1-yl)(1-methoxycyclohexyl) methanone], the “HLM (% inh @ 100 nM)” value in data set [1] is 84.56%. The “MLM (% inh @ 1000 nM)” value in data set [2] is reported as 40.18%.

In the case of `CC(C)(O)CNC(=O)N1CCC(c2ccc(-c3cn[nH]c3)cc2F)CC1` [Compound 152, 4-(2-fluoro-4-(1H-pyrazol-4-yl)phenyl)-N-(2-hydroxy-2-methylpropyl)piperidine-1-carboxamide], the “HLM (% inh @ 100 nM)” value in data set [1] amounted to 88.49%. Moreover, in data set [2], the “MLM (% inh @ 1000 nM)” value is reported as 48.10%.

Take `O=C(C1CCN(c2ccc(-c3cn[nH]c3)cc2F)CC1)N1CC2CCCC2C1` (stereo not shown) [Compound 153, (1-(2-fluoro-4-(1H-pyrazol-4-yl)phenyl)piperidin-4-yl)(hexahydrocyclopenta[c]pyrrol-2 (1H)-yl) methanone]: in data set [1], the 50% inhibitory concentration (IC50) was 32.4 nM and the “HLM (% inh @ 100 nM)” value amounted to 74.69%. In addition, in data set [4], the “absorption and blood exposure” value is “well absorbed and exhibit high blood exposure”; the area under the curve AUC(0-inf) was 566000 ng·h/mL; the peak level (Cmax) was 75200 ng/mL; the time to peak (Tmax) was found to be 2 h. In data set [4], the half-life is 3.26 h and the AUC(0-t) was 558000 ng·h/mL. Also, the half-inhibitory concentration (IC50) in data set [3] was found to be 361 nM.

Regarding `O=C1CCCCCN1CC1CCN(c2ccc(-c3cn[nH]c3)cc2F)CC1` [Compound 161, 1-((1-(2-fluoro-4-(1H-pyrazol-4-yl)phenyl)piperidin-4-yl)methyl) azepan-2-one], in data set [1], the “HLM (% inh @ 100 nM)” value is 86.45%. For the same compound, the “MLM (% inh @ 1000 nM)” value in data set [2] came to 59.36%.
